Data published in BindingDB's records for doi:10.1021/bi7019707 (Emory University, 2008).

Assays:
Test in all cases: Inhibition Assay
[1] = molecular target: T1, Amine oxidase [flavin-containing] A (Homo sapiens, UniProt P21397)
T1 sequence (P21397 whole entry): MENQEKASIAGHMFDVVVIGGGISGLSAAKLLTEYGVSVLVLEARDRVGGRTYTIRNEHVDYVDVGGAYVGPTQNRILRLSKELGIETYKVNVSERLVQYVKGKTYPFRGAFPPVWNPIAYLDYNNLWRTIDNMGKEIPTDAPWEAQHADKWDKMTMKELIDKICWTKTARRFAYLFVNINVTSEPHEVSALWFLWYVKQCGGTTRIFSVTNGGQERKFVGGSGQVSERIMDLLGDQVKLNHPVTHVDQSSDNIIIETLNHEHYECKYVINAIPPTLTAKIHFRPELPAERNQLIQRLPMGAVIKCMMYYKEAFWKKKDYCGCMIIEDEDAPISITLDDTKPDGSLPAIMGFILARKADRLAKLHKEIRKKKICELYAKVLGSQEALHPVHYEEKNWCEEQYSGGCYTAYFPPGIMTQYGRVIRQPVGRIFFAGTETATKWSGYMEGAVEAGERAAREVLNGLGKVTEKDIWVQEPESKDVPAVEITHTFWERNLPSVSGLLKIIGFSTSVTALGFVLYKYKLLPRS
From the text: (§1) Competitive inhibition assay using human and rat MAOs.

[2] = molecular target: T2, Amine oxidase [flavin-containing] A (Rattus norvegicus, UniProt P21396)
T2 sequence (P21396 whole entry): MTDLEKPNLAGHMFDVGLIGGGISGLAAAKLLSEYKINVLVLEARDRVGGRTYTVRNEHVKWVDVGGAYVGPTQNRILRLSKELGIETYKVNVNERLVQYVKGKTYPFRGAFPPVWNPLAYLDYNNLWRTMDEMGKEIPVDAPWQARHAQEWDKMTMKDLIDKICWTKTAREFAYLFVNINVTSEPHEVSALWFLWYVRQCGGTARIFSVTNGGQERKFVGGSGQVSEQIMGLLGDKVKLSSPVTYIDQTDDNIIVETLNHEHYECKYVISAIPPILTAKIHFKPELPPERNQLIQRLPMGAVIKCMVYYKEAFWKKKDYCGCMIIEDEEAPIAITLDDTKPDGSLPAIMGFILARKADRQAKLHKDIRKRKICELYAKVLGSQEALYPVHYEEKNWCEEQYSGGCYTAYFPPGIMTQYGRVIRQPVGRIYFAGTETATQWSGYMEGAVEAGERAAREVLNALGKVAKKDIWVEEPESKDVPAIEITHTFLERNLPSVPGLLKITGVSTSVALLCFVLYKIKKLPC
From the text: as §1

[3] = molecular target: T3, Amine oxidase [flavin-containing] B (Homo sapiens, UniProt P27338)
T3 sequence (P27338 whole entry): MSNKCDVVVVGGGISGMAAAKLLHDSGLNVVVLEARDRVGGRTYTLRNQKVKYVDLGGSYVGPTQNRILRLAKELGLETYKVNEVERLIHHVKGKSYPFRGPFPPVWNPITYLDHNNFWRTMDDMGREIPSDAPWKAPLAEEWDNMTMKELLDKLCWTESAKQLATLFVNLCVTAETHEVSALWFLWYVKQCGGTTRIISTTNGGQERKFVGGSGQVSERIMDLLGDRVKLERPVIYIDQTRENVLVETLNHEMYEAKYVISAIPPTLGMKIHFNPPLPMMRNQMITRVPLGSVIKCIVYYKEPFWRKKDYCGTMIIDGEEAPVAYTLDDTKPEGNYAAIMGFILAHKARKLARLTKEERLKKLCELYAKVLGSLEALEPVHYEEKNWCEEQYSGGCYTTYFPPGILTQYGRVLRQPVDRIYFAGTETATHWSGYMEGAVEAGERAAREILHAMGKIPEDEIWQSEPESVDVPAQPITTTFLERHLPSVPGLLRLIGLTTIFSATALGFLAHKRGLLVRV
From the text: as §1

[4] = molecular target: T4, Amine oxidase [flavin-containing] B (Rattus norvegicus, UniProt P19643)
T4 sequence (P19643 whole entry): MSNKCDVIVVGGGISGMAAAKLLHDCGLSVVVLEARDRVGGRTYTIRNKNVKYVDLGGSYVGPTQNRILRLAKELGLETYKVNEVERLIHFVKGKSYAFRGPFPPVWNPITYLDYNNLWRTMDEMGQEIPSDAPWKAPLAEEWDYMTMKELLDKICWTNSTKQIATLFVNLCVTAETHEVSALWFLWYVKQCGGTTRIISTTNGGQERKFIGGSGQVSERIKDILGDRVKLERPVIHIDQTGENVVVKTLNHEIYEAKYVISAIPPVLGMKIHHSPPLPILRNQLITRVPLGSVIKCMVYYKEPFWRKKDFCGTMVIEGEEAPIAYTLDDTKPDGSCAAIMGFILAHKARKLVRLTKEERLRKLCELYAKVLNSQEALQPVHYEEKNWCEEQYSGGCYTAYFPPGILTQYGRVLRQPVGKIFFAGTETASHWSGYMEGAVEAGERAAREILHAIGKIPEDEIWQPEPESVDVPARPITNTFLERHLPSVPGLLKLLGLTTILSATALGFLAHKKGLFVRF
From the text: as §1

Ki [1]: 212 µM
Ki [2]: 151 µM
Ki [3]: 22 µM
Ki [4]: 107 µM
SMILES: C#CCN(C)Cc1ccc(CC(=O)NC2CC(C)(C)N(O)C(C)(C)C2)cc1 [ParSL]
